According to patent US10865216B2, “Tricyclic Gyrase inhibitors” (MERCK SHARP & DOHME CORP., priority 2012, dated 2020):
≈ marks a conversion by molar mass, not a printed value. Read-outs that look alike come from different tables or passages of the source.

Tests used:
[1] = system: E. coli ATCC 25922; experiment: MIC, E. coli ATCC 25922; assay type: cell-based; conditions: for MIC: Escherichia coli
[2] = system: S. aureus ATCC 13709; experiment: MIC, S. aureus ATCC 13709; assay type: cell-based; conditions: for MIC: Staphylococcus aureus
[3] = E. coli, Alamar Blue read after overnight incubation at 35° C.
[4] = S. aureus, Alamar Blue read after overnight incubation at 35° C.
[5] = ATCC25922, E. coli, Alamar Blue read after overnight incubation at 35° C., read-out: MIC Ec
[6] = ATCC13709, S. aureus, Alamar Blue read after overnight incubation at 35° C., read-out: MIC Sa

| SMILES | MIC Ec [1, 3] | MIC Sa [2, 4] | other results |
| --- | --- | --- | --- |
| CNc1cc(F)cc2c1[nH]c1nc(Oc3cnc4scnc4c3)nc(N3C[C@H]4C[C@@H]3C[C@H]4N)c12 [Compound 10.34] | – | – | MIC Ec ([1]; Table 18, Ec): ≤ 0.5 µg/mL; MIC Sa ([2]; Table 18, Sa): ≤ 0.5 µg/mL |
| CNc1cc(F)cc2c1[nH]c1nc(Oc3cnc(C)nc3)nc(N3CC4C(CN)C4C3)c12 (centres unmarked) [Compound 4.106] | 2 µg/mL (≈ 4.6 µM) | ≤0.5 µg/mL | – |
| CNc1cc(F)cc2c1[nH]c1nc(Oc3ccc4sc(C)nc4c3)nc(N3CC4CCC(N)C4C3)c12 (centres unmarked) [Compound 4.322] | ≤0.5 µg/mL | ≤0.5 µg/mL | – |
| CNc1cc(F)cc2c1[nH]c1nc(Oc3cnc(N)nc3)nc(N3CCC4(C[C@H]4N)C3)c12 (some centres unmarked) [Compound 4.174] | ≤0.5 µg/mL | ≤0.5 µg/mL | – |
| CNc1cc(F)cc2c1[nH]c1nc(Oc3cnc4[nH]cnc4c3)nc(N3CC4CC(N)C4C3)c12 (centres unmarked) [Compound 4.310] | >16 µg/mL | 8 µg/mL (≈ 17.4 µM) | – |
| CNc1cc(F)cc2c1[nH]c1nc(Oc3cnc(C)nc3)nc(N3CCC4(CCC4N)CC3)c12 (centres unmarked) [Compound 4.139] | ≤0.5 µg/mL | ≤0.5 µg/mL | – |
| CNc1cc(F)cc2c1[nH]c1nc(Oc3cnc(C)nc3)nc(N3CC4CCNC4C3)c12 (centres unmarked) [Compound 4.094] | ≤0.5 µg/mL | ≤0.5 µg/mL | – |
| CNc1cc(F)cc2c1[nH]c1nc(Oc3cncc(F)c3)nc(N3CCC4(CC4N)C3)c12 (centres unmarked) [Compound 4.062] | ≤0.5 µg/mL | ≤0.5 µg/mL | – |
| CNc1cccc2c1[nH]c1nc(Oc3cnc(N)nc3)nc(Oc3cnc(N)nc3)c12 [Compound 8.4] | – | – | MIC [1, 5]: > 64 µg/mL; MIC [2, 6]: 8 µg/mL (≈ 19.2 µM) |
| CNc1cc(F)cc2c1[nH]c1nc(Sc3cnc4cccnc4c3)nc(N3CC4C(N)C4C3)c12 (centres unmarked) [Compound 1.51] | – | – | MIC [1, 5]: ≤ 0.5 µg/mL; MIC [2, 6]: ≤ 0.5 µg/mL |
| CNc1cc(F)cc2c1[nH]c1nc(Oc3cncnc3)nc(N3CC4CCNC4C3)c12 (centres unmarked) [Compound 4.020] | ≤0.5 µg/mL | ≤0.5 µg/mL | – |
| CNc1cc(F)cc2c1[nH]c1nc(Oc3cnc(SC)nc3)nc(N3CC4CC(N)C4C3)c12 (centres unmarked) [Compound 4.196] | ≤0.5 µg/mL | ≤0.5 µg/mL | – |
| CNc1cc(F)cc2c1[nH]c1nc(Oc3cncc(-c4nnnn4C)c3)nc(N3CC4C[C@@H](N)C4C3)c12 (some centres unmarked) [Compound 4.171] | 4 µg/mL (≈ 7.98 µM) | ≤0.5 µg/mL | – |
| CNc1cc(F)c(F)c2c1[nH]c1nc(Oc3cnc4c(c3)ncn4C3CC3)nc(N3C[C@H]4C[C@@H]3C[C@H]4N)c12 [Compound 5.15] | – | – | MIC [1, 5]: 1 µg/mL (≈ 1.93 µM); MIC [2, 6]: ≤ 0.5 µg/mL |
| CNc1cc(F)cc2c1[nH]c1nc(Oc3cnc(C)nc3)nc(N3CCC(C4CNC4)C3)c12 (centres unmarked) | – | – | MIC ([1]; ATCC25922, Table 16, new R4 substituents, EC8 not defined, read-out: EC8 MIC): 8 µg/mL (≈ 17.8 µM); MIC ([2]; ATCC13709, Table 16, new R4 substituents, read-out: SA MIC): ≤ 0.5 µg/mL |
| CNc1cc(F)cc2c1[nH]c1nc(Oc3cncnc3)nc(N3CCCC(C)(N)C3)c12 (centres unmarked) [Compound 4.024] | 2 µg/mL (≈ 4.73 µM) | ≤0.5 µg/mL | – |
| CNc1cc(F)cc2c1[nH]c1nc(Oc3cnc(C4CC4)nc3)nc(C3CCC4(CC3)NC(=O)NC4=O)c12 (centres unmarked) [Compound 4.252] | >16 µg/mL | >16 µg/mL | – |
| CNc1cccc2c1[nH]c1nc(Oc3cncc(C#N)c3)cc(N3CCN(CCN4CCOCC4)CC3)c12 [Compound 3.59] | – | – | MIC [1, 5]: > 64 µg/mL; MIC [2, 6]: 4 µg/mL (≈ 7.8 µM) |
| CNc1cc(F)cc2c1[nH]c1nc(Oc3cnc(C)nc3)nc(N3CCC(C4(N)CC4)C3)c12 (centres unmarked) [Compound 4.083] | ≤0.5 µg/mL | ≤0.5 µg/mL | – |
| CNc1cc(F)c(F)c2c1[nH]c1nc(Oc3cnc([C@H](C)O)nc3)nc(N3C[C@H]4C[C@@H]3C[C@H]4N)c12 [Compound 10.25] | – | – | MIC Ec ([1]; Table 18, Ec): ≤ 0.5 µg/mL; MIC Sa ([2]; Table 18, Sa): ≤ 0.5 µg/mL |
| CNc1cc(F)cc2c1[nH]c1nc(Oc3cnc(CCO)nc3)nc(N3CC4C[C@@H](N)C4C3)c12 (some centres unmarked) [Compound 4.429] | – | – | MIC [1, 5]: 1 µg/mL (≈ 2.15 µM); MIC [2, 6]: ≤ 0.5 µg/mL |
| COc1cccc2c1[nH]c1nc(Sc3cnc4ccc[n+]([O-])c4c3)nc(N3CC[C@@H](N)C3)c12 [Compound 1.78] | – | – | MIC [1, 5]: 64 µg/mL (≈ 139 µM); MIC [2, 6]: ≤ 0.5 µg/mL |
| CNc1cc(F)cc2c1[nH]c1nc(Cc3cnn(C)c3)nc(N3C[C@H]4C[C@@H]3C[C@H]4N)c12 [Compound 10.47] | – | – | MIC Ec ([1]; Table 18, Ec): 8 µg/mL (≈ 19 µM); MIC Sa ([2]; Table 18, Sa): 1 µg/mL (≈ 2.38 µM) |
| CNc1cccc2c1[nH]c1nc(Sc3cnc4cccnc4c3)nc(N3CCC(CO)C3)c12 (centres unmarked) [Compound 1.53] | – | – | MIC [1, 5]: 8 µg/mL (≈ 17.5 µM); MIC [2, 6]: ≤ 0.5 µg/mL |
| CNc1cc(F)cc2c1[nH]c1nc(Oc3cnc(C)nc3)nc(N3CCC4(CC3)CC4CN)c12 (centres unmarked) [Compound 10.80] | – | – | MIC Ec ([1]; Table 18, Ec): 2 µg/mL (≈ 4.32 µM); MIC Sa ([2]; Table 18, Sa): 0.06 µg/mL (≈ 0.13 µM) |
| CNc1cc(F)cc2c1[nH]c1nc(Oc3ccc4oc(C)nc4c3)nc(N3CC4CCC(N)C4C3)c12 (centres unmarked) [Compound 4.336] | 1 µg/mL (≈ 2.05 µM) | ≤0.5 µg/mL | – |
| CNc1cccc2c1[nH]c1nc(Sc3cnc4ccc[n+]([O-])c4c3)nc(N3CC4C(N)C4C3)c12 (centres unmarked) [Compound 1.71] | ≤0.5 µg/mL | ≤0.5 µg/mL | – |
| CCc1cc(F)cc2c1[nH]c1nc(Oc3cncnc3)nc(N3CC4CC(N)C4C3)c12 (centres unmarked) [Compound 2.5] | 2 µg/mL (≈ 4.77 µM) | ≤0.5 µg/mL | – |
